Results reported in patent US9040663B2, “Melanocortin receptor-specific peptides” (AstraZeneca AB, priority 2009, dated 2015).
Like-named read-outs stand apart in the source and are kept apart here. Positions of bridges follow the written chain, without caps; N, C: chain ends. Non-standard residues stand in square brackets, D forms with d. Residues, ends and D or L forms follow the SMILES beside them. dPhe(4-CN) = N#Cc1ccc(C[C@@H](N)C(=O)O)cc1; Orn = NCCC[C@H](N)C(=O)O

Assays:
MC1-R = assay: Competitive inhibition binding assay using [I125]-NDP-α-MSH, MC1-R; details: membranes of B-16 mouse melanoma cells (endogenous MC1-R), in some instances HEK-293 hMC1-R
Procedure: 7.1 Competitive Inhibition Assay using [I^125]-NDP-α-MSH.
A competitive inhibition binding assay was performed for exemplified peptides according to the invention using membrane homogenates prepared from HEK-293 cells that express recombinant hMC4-R, hMC3-R, or hMC5-R, and from B-16 mouse melanoma cells (containing endogenous MC1-R). In some instances, HEK-293 cells that express recombinant hMC1-R were employed. Assays were performed in 96 well GF/B Millipore multiscreen filtration plates (MAFB NOB10) pre-coated with 0.5% bovine serum albumin (Fraction V). Membrane homogenates were incubated with 0.2 nM (for hMC4-R) 0.4 nM (for MC3-R and MC5-R) or 0.1 nM (for mouse B16 MC1-R or hMC1-R) [I^125]-NDP-α-MSH (Perkin Elmer) and increasing concentrations of test peptides of the present invention in buffer containing 25 mM HEPES buffer (pH 7.5) with 100 mM NaCl, 2 mM CaCl2, 2 mM MgCl2, 0.3 mM 1,10-phenanthroline, and 0.2% bovine serum albumin. After incubation for 60 minutes at 37° C., the assay mixture was filtered and the membranes washed three times with ice-cold buffer. Filters were dried and counted in a gamma counter for bound radioactivity. […] Maximal specific binding (100%) was defined as the difference in radioactivity (cpm) bound to cell membranes in the absence and presence of 1 μM NDP-α-MSH. […] Each assay was conducted in triplicate and the actual mean values are described, with results less than 0% reported as 0%. Ki values for test peptides of the present invention were determined using Graph-Pad Prism® curve-fitting software.

hMC4-R [1] = target: T1, hMC4-R (Homo sapiens (Human), UniProt P32245); assay: High and low density hMC4-R functional assay (cAMP, HEK293-T-REx-MC4-R cells); type: cell-based; details: for Emax: NDP-α-MSH = 100%, read-out: Intrinsic Activity (%)
hMC4-R [2] = target: T1, hMC4-R; assay: Competitive inhibition binding assay using [I125]-NDP-α-MSH, hMC4-R; details: membranes of HEK-293 cells expressing recombinant hMC4-R, read-out: MC4-R Ki
[3] = 0.1 ng/mL Doxycycline (low density hMC4-R system)
[4] = 10 ng/mL Doxycycline (high density hMC4-R system)

T1 sequence (P32245 whole entry): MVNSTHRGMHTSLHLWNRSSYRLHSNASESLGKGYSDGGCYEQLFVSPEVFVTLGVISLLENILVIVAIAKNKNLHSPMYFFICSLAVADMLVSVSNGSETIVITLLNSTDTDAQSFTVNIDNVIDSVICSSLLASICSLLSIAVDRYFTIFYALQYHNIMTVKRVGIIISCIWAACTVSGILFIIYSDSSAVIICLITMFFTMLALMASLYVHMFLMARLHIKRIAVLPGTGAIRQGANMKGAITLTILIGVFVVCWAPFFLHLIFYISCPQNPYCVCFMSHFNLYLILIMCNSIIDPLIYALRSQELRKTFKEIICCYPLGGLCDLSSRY

Row | Ki (MC1-R) [nM] | Emax (hMC4-R [1]; [3]) [%] | EC50 (hMC4-R [1]; [4]) [nM] | Emax (hMC4-R [1]; [4]) [%] | Ki (hMC4-R [2]) [nM] | EC50 (hMC4-R [1]; [3]) [nM] | Compound
1 | 4300 | 5 | 0.8 | 84 | 3 |  | CC(=O)N[C@@H](CCCNC(=N)N)C(=O)N[C@H]1CCC(=O)NCCC[C@@H](C(N)=O)NC(=O)[C@H](Cc2c[nH]c3ccccc23)NC(=O)[C@H](CCCNC(=N)N)NC(=O)[C@@H](Cc2ccc(C#N)cc2)NC(=O)[C@H](C)NC1=O [Example 41, Ac-Arg-cyclo(Glu-Ala-D-Phe(4-CN)-Arg-Trp-Orn)-NH2] (Ac-REA[dPhe(4-CN)]RW[Orn]-NH2; lactam 2-7)
2 | 105 | 84 | 0.06 | 105 | 5 | 0.6 | CC(=O)N[C@@H](CCCNC(=N)N)C(=O)N[C@H]1CCC(=O)NCCC[C@@H](C(N)=O)NC(=O)[C@H](Cc2c[nH]c3ccccc23)NC(=O)[C@H](CCCNC(=N)N)NC(=O)[C@@H](Cc2ccccc2C)NC(=O)[C@H](CCC(N)=O)NC1=O [Example 110, Ac-Arg-cyclo(Glu-Gln-D-Phe(2-Me)-Arg-Trp-Orn)-NH2]
3 | 30 | 41 | 0.3 | 98 | 11 | 5 | CC(=O)NCC[C@@H]1NC(=O)[C@@H](NC(=O)[C@H](CCCNC(=N)N)NC(C)=O)CCC(=O)NCCC[C@@H](C(N)=O)NC(=O)[C@H](Cc2c[nH]c3ccccc23)NC(=O)[C@H](CCCNC(=N)N)NC(=O)[C@@H](Cc2ccccc2Cl)NC1=O [Example 56, Ac-Arg-cyclo(Glu-Dab(Acetyl)-D-Phe(2-Cl)-Arg-Trp-Orn)-NH2]
4 | 3 | 22 | 0.4 | 95 | 0.6 | 0.64 | CC(=O)N[C@H](CCCNC(=N)N)C(=O)N[C@H]1CCCNC(=O)CC[C@@H](C(N)=O)NC(=O)[C@H](Cc2c[nH]c3ccccc23)NC(=O)[C@H](CCCNC(=N)N)NC(=O)[C@@H](Cc2cccc(Cl)c2)NC(=O)[C@H](Cc2c[nH]cn2)NC1=O [Example 51, Ac-D-Arg-cyclo(Orn-His-D-Phe(3-Cl)-Arg-Trp-Glu)-NH2]
5 | 93 | 73 |  | 117 | 8 | 1 | CC(=O)N[C@@H](CCCNC(=N)N)C(=O)N[C@H]1CCC(=O)NCCC[C@@H](C(N)=O)NC(=O)[C@H](Cc2c[nH]c3ccccc23)NC(=O)[C@H](CCCNC(=N)N)NC(=O)[C@@H](Cc2ccccc2C(F)(F)F)NC(=O)[C@H](CCC(N)=O)NC1=O [Example 114, Ac-Arg-cyclo(Glu-Gln-D-Phe(2-CF3)-Arg-Trp-Orn)-NH2]
6 | 10000 | 12 | 0.45 | 87 | 10 |  | CC(=O)N[C@@H](CCCNC(=N)N)C(=O)N[C@H]1CCC(=O)NCCC[C@@H](C(N)=O)NC(=O)[C@H](Cc2c[nH]c3ccccc23)NC(=O)[C@H](CCCNC(=N)N)NC(=O)[C@@H](Cc2ccc(C#N)cc2)NC(=O)[C@H](CO)NC1=O [Example 45, Ac-Arg-cyclo(Glu-Ser-D-Phe(4-CN)-Arg-Trp-Orn)-NH2]
7 | 1550 | 4 | 1 | 79 | 4 |  | CC(=O)N[C@@H](CCCNC(=N)N)C(=O)N[C@H]1CCC(=O)NCCC[C@@H](C(N)=O)NC(=O)[C@H](Cc2c[nH]c3ccccc23)NC(=O)[C@H](CCCNC(=N)N)NC(=O)[C@@H](Cc2ccc(C#N)cc2)NC(=O)[C@@H]2CCCN2C1=O [Example 39, Ac-Arg-cyclo(Glu-Pro-D-Phe(4-CN)-Arg-Trp-Orn)-NH2]
8 | 43 | 29 | 2 | 100 | 33 | 37 | CC(=O)N[C@@H](CCCNC(=N)N)C(=O)N[C@H]1CCC(=O)NCCC[C@@H](C(N)=O)NC(=O)[C@H](Cc2c[nH]c3ccccc23)NC(=O)[C@H](CCCNC(=N)N)NC(=O)[C@@H](Cc2cccc(C#N)c2)NC(=O)[C@H](CCN)NC1=O [Example 6, Ac-Arg-cyclo(Glu-Dab-D-Phe(3-CN)-Arg-Trp-Orn)-NH2]
9 | 245 | 78 | 0.09 | 97 | 7 |  | CC(=O)N[C@@H](CCCNC(=N)N)C(=O)N[C@H]1CCC(=O)NCCC[C@@H](C(N)=O)NC(=O)[C@H](Cc2c[nH]c3ccccc23)NC(=O)[C@H](CCCNC(=N)N)NC(=O)[C@@H](Cc2ccccc2F)NC(=O)[C@H](CC(N)=O)NC1=O [Example 84, Ac-Arg-cyclo(Glu-Asn-D-Phe(2-Cl)-Arg-Trp-Orn)-NH2]
10 | 53 | 57 | 0.08 | 90 | 3 | 1 | CC(=O)N[C@@H](CCCNC(=N)N)C(=O)N[C@H]1CCC(=O)NCCC[C@@H](C(N)=O)NC(=O)[C@H](Cc2c[nH]c3ccccc23)NC(=O)[C@H](CCCNC(=N)N)NC(=O)[C@@H](Cc2ccccc2F)NC(=O)[C@@H]2C[C@@H](O)CN2C1=O [Example 64, Ac-Arg-cyclo(Glu-Hyp-D-Phe(2-F)-Arg-Trp-Orn)-NH2]
11 | 3 | 85 | 0.06 | 96 | 0.6 | 0.125 | CC(=O)N[C@@H](CCCNC(=N)N)C(=O)N[C@H]1CCC(=O)NCCC[C@@H](C(N)=O)NC(=O)[C@H](Cc2c[nH]c3ccccc23)NC(=O)[C@H](CCCNC(=N)N)NC(=O)[C@@H](Cc2ccccc2C(F)(F)F)NC(=O)[C@H](CCN)NC1=O [Example 13, Ac-Arg-cyclo(Glu-Dab-D-Phe(2-CF3)-Arg-Trp-Orn)-NH2]
12 | 290 | 31 |  | 97 | 3 | 2 | CC(=O)N[C@@H](CCCNC(=N)N)C(=O)N[C@H]1CCC(=O)NCCC[C@@H](C(N)=O)NC(=O)[C@H](Cc2c[nH]c3ccccc23)NC(=O)[C@H](CCCNC(=N)N)NC(=O)[C@@H](Cc2cccc(Cl)c2)NC(=O)[C@H](CCC(N)=O)NC1=O [Example 38, Ac-Arg-cyclo(Glu-Gln-D-Phe(3-Cl)-Arg-Trp-Orn)-NH2]
13 | 143 | 41 | 0.153 | 98 | 1 | 1 | CC(=O)N[C@@H](CCCNC(=N)N)C(=O)N[C@H]1CCC(=O)NCCC[C@@H](C(N)=O)NC(=O)[C@H](Cc2c[nH]c3ccccc23)NC(=O)[C@H](CCCNC(=N)N)NC(=O)[C@@H](Cc2ccccc2Cl)NC(=O)[C@@H]2C[C@@H](O)CN2C1=O [Example 33, Ac-Arg-cyclo(Glu-Hyp-D-Phe(2-Cl)-Arg-Trp-Orn)-NH2]
14 | 0.5 | 83 | 0.06 | 90 | 0.25 | 0.065 | CC(=O)N[C@@H](CCCNC(=N)N)C(=O)N[C@H]1CCC(=O)NCCC[C@@H](C(N)=O)NC(=O)[C@H](Cc2c[nH]c3ccccc23)NC(=O)[C@H](CCCNC(=N)N)NC(=O)[C@@H](Cc2ccc(F)cc2)NC(=O)[C@H](CCN)NC1=O [Example 11, Ac-Arg-cyclo(Glu-Dab-D-Phe(4-F)-Arg-Trp-Orn)-NH2]
15 | 235 | 54 | 0.17 | 108 | 4 | 0.8 | CC(=O)N[C@@H](CCCNC(=N)N)C(=O)N[C@H]1CCCNC(=O)CC[C@@H](C(N)=O)NC(=O)[C@H](Cc2c[nH]c3ccccc23)NC(=O)[C@H](CCCNC(=N)N)NC(=O)[C@@H](Cc2ccccc2C(F)(F)F)NC(=O)[C@H](CCC(N)=O)NC1=O [Example 115, Ac-Arg-cyclo(Orn-Gln-D-Phe(2-CF3)-Arg-Trp-Glu)-NH2]
16 | 380 | 8 | 1 | 89 | 6 |  | CC(=O)N[C@@H](CCCNC(=N)N)C(=O)N[C@H]1CCC(=O)NCCC[C@@H](C(N)=O)NC(=O)[C@H](Cc2c[nH]c3ccccc23)NC(=O)[C@H](CCCNC(=N)N)NC(=O)[C@@H](Cc2cccc(Cl)c2)NC(=O)[C@H]([C@@H](C)O)NC1=O [Example 36, Ac-Arg-cyclo(Glu-Thr-D-Phe(3-Cl)-Arg-Trp-Orn)-NH2]
17 | 0.75 | 86 | 0.13 | 90 | 0.95 | 0.13 | CC(=O)N[C@H](CCCNC(=N)N)C(=O)N[C@H]1CCCNC(=O)CC[C@@H](C(N)=O)NC(=O)[C@H](Cc2c[nH]c3ccccc23)NC(=O)[C@H](CCCNC(=N)N)NC(=O)[C@@H](Cc2ccccc2F)NC(=O)[C@H](Cc2c[nH]cn2)NC1=O [Example 53, Ac-D-Arg-cyclo(Orn-His-D-Phe(2-F)-Arg-Trp-Glu)-NH2]
